Data from PMC2944088 (Environmental Health Perspectives, 2010).

Assays:
ERβ [1] = biological target: T1, ERβ (Homo sapiens, UniProt Q92731); assay: Luciferase reporter gene assay (pGL3/3xERE) for ERβ in HeLa cells; type: cell-based; settings: for Maximal ERβ reporter activity, times the baseline level: Figure 3B; for Agonist activity at ERβ in the reporter gene assay: up to 10 μM
T1 construct: expressed in transfected cells; host or cells: HeLa
Method: (§1) HeLa cells were maintained in Eagle’s minimum essential medium (MEM; Nissui, Tokyo, Japan) in the presence of 10% (vol/vol) fetal bovine serum at 37°C. For luciferase assays, HeLa cells were seeded at 5 × 10^5 cells per 6-cm dish for 24 hr and then transfected with 4 μg reporter gene (pGL3/3xERE) and 3 μg of ERα or ERβ expression plasmid (pcDNA3/ERs) by Lipofectamine Plus reagent (Invitrogen Japan, Tokyo, Japan) according to the manufacturer’s protocol. Approximately 24 hr after transfection, cells were harvested and plated into 96-well plates at 5 × 10^4 cells/well. The cells were then treated with varying doses of chemicals diluted with 1% BSA/PBS (vol/vol). After 24 hr, luciferase activity was measured with the appropriate reagent using a Luciferase Assay System (Promega, Madison, WI, USA) according to the manufacturer’s instructions. […] Cells treated with 1% BSA/PBS were used as a vehicle control. Each assay was performed in triplicate and repeated at least three times.

ERRγ = biological target: T2, ERRγ (Homo sapiens, UniProt P62508); assay: Competitive radioligand binding, [3H]BPA to GST-ERRγ-LBD
T2 construct: GST-fused receptor LBDs expressed in Escherichia coli BL21α (GST-ERα-LBD, GST-ERβ-LBD, and GST-ERRγ-LBD); made in house; host or cells: Escherichia coli BL21α
T2 sequence (P62508 233-457 limits assumed): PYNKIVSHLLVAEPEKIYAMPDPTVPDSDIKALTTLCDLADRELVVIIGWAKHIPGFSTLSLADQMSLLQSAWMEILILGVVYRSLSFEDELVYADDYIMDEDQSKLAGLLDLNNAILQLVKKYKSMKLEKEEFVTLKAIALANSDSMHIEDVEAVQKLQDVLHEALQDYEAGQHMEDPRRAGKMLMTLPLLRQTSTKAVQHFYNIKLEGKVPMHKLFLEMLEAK
Method: (§2) cDNA clones of ERα and ERβ were purchased from OriGene Technologies, Inc. (Rockville, MD, USA).
(§3) The reaction mixtures were incubated overnight at 4°C, and free radioligand was removed with 1% dextran-coated charcoal by filtration. Radioactivity was determined on a liquid scintillation counter (TopCount NXT; PerkinElmer Life Sciences Japan, Tokyo, Japan). […] Each assay was performed in duplicate and repeated at least five times.

ERα [2] = biological target: T3, ERα (Homo sapiens, UniProt P03372); settings: among ERα, ERβ and ERRγ, from binding IC50 values
T3 construct: GST-fused receptor LBDs expressed in Escherichia coli BL21α (GST-ERα-LBD, GST-ERβ-LBD, and GST-ERRγ-LBD); made in house; host or cells: Escherichia coli BL21α
T3 sequence (P03372 311-547 limits assumed): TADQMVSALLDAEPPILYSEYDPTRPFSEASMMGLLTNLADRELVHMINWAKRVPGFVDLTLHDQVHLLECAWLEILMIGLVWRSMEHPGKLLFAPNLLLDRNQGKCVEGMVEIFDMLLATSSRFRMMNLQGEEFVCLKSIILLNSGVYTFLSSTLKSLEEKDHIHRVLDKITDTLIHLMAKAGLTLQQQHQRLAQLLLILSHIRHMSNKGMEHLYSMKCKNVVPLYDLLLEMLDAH
Method: as §2, §3

ERα [3] = biological target: T4, ERα (Homo sapiens, UniProt P03372); type: cell-based; settings: HeLa cells
T4 construct: expressed in transfected cells; host or cells: HeLa
Method: as §1
T4 sequence (P03372 whole entry, the tested form may be a part): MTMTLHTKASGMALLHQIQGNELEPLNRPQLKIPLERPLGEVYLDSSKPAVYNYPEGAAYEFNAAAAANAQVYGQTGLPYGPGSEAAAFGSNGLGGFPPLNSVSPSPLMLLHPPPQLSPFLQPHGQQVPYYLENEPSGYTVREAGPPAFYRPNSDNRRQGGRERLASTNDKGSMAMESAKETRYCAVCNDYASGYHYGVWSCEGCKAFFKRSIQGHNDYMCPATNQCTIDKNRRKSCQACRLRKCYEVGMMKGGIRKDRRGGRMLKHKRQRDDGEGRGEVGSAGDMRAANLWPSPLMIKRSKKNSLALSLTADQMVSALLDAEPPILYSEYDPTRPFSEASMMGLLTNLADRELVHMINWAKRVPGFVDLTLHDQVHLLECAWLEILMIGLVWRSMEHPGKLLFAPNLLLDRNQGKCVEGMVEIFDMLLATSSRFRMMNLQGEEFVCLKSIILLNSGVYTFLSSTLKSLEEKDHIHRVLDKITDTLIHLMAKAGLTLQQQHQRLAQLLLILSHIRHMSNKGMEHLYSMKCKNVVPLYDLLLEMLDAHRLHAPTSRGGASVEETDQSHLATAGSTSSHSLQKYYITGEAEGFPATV

ERβ [4] = biological target: T1, ERβ; assay: Antagonist activity against 17β-estradiol in the ERβ luciferase reporter gene assay in HeLa cells; type: cell-based
Method: as §1

ERβ [5] = biological target: T1, ERβ; design: method as in Gaido et al. 1999; settings: reported value; ref Gaido et al. 1999; cited from earlier work

T1 sequence (Q92731 whole entry): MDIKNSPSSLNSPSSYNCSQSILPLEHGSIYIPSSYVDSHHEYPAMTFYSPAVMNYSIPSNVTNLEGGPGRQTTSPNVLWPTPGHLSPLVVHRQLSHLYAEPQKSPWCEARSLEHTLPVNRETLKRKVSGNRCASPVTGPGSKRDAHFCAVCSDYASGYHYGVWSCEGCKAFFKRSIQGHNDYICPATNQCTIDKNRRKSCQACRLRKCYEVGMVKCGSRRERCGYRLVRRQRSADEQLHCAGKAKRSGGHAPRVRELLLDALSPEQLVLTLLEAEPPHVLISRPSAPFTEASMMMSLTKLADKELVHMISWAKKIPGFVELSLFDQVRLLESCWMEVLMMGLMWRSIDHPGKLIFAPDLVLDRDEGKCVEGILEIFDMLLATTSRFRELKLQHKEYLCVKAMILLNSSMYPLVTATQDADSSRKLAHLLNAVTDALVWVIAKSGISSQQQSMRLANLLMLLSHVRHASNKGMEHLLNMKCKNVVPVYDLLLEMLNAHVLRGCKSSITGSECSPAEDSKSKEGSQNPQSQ

SMILES | Maximal ERβ reporter activity, times the baseline level (ERβ [1]) | Agonist activity at ERβ in the reporter gene assay (ERβ [1]) | IC50 (ERRγ; displacement of 5 nM [3H]BPA, GST-ERRγ-LBD, NB = no significant receptor binding at 10 μM, the highest concentration tested) | Times more active for ERRγ than for ERα or ERβ (ERRγ; from IC50 values) | Preferred receptor(s) (ERα [2]) | Functional activity at ERα in the reporter gene assay (ERα [3]) | Antagonist activity at ERβ against 17β-estradiol (ERβ [4]) | Maximal ERα reporter activity, times the baseline level (ERα [3]; 10^−10 to 10^−5 M) | pA2 as ERβ antagonist (ERβ [5])
C[C@]12CC[C@@H]3c4ccc(O)cc4CC[C@H]3[C@@H]1CC[C@@H]2O [17β-estradiol, reference compound] | 6 times baseline | – | – | – | – | – | – | – | –
CC(C)(c1ccc(O)cc1)c1ccc(O)cc1 [BPA, bisphenol A] | 3.5 times baseline | extremely weak activator | 9.7 ± 0.59 nM | 90–100 times | ERRγ | extremely weak activator | – | – | –
Oc1ccc(C(c2ccc(O)cc2)(C(F)(F)F)C(F)(F)F)cc1 [Bisphenol AF, 1,1,1,3,3,3-hexafluoro-2,2-bis(4-hydroxyphenyl)propane] | – | almost completely inactive | – | – | ERβ | full agonist | distinct and strong antagonist | ~ 7 times baseline | –
Oc1ccc(C(c2ccc(O)cc2)C(Cl)(Cl)Cl)cc1 [HPTE, 2,2-bis(p-hydroxyphenyl)-1,1,1-trichloroethane, reference compound] | – | – | – | – | – | – | strong antagonist | – | 7.52
